{
  "source": "patent US20020123514A1",
  "about": "“Treatment of diabetes with thiazolidinedione and alpha-glucosidase inhibitor” (SmithKline Beecham plc, priority 1997, published 2002)",
  "test": "Pharmacokinetic interaction study: single oral dose of Compound (I) alone and coadministered with acarbose",
  "assay_type": "in vivo, healthy volunteers",
  "description": "This study investigated whether administration of acarbose (A) alters the PK of co-administered Compound (I). Sixteen healthy volunteers (24-59 yo) received a single oral dose of Compound (I) (8 mg) on Day 1, followed by 7 days of repeat dosing with A (100 mg tid with meals). On Day 8, a single oral dose of Compound (I) was coadministered with the morning dose of A. PK profiles following Compound (I) dosing on Days 1 and 8 were compared. […] PK data and point estimates [95% confidence intervals] for Compound (I)+A: Compound (I) alone were analyzed.",
  "key": {"[1]": {"settings": "human, in vivo, Compound (I) alone, single oral dose 8 mg, Day 1, healthy volunteers"}},
  "data": [
    {"smiles": "C[C@H]1O[C@H](O[C@H]2[C@H](O)[C@@H](O)[C@@H](O[C@H]3[C@H](O)[C@@H](O)C(O)O[C@@H]3CO)O[C@@H]2CO)[C@H](O)[C@@H](O)[C@@H]1N[C@H]1C=C(CO)[C@@H](O)[C@H](O)[C@H]1O", "note": "(some centres unmarked) [acarbose, reference compound]", "values": [
      {"measurement": "effect on Compound (I) clearance", "setting": "acarbose 100 mg tid coadministered, changes small, not likely clinically relevant", "result": "slightly increase"}
    ]},
    {"smiles": "CN(CCOc1ccc(CC2SC(=O)NC2=O)cc1)c1ccccn1", "note": "(centres unmarked) [Compound (I), 5-[4-[2-(N-methyl-N-(2-pyridyl)amino)ethoxy]benzyl]thiazolidine-2,4-dione]", "values": [
      {"measurement": "AUC(0-inf)", "setting": "[1]", "result": 2790, "unit": "ng·h/mL"},
      {"measurement": "Cmax", "setting": "[1]", "result": 428, "unit": "ng/mL"},
      {"measurement": "half-life", "setting": "human, in vivo, Compound (I) alone, single oral dose 8 mg, Day 1, healthy volunteers, read-out: T½ (converted)", "result": 4.93, "unit": "h"},
      {"measurement": "Tmax", "setting": "human, in vivo, Compound (I) alone, single oral dose 8 mg, Day 1, median (range)", "result": 1.48, "unit": "h"}
    ]}
  ]
}
